Like-named read-outs stand apart in the source and are kept apart here.
Key:
[1] = tested on: Leptosphaeria nodorum (LEPTNO); assay: In vitro fungitoxicity of hydrazones with and without copper towards Leptosphaeria nodorum (Example 26); assay type: cell-based; settings: 72 h at 25° C.; for inhibition of growth at 0.05 µg/mL: Parastagonospora nodorum, 72 h, copper-minus medium, read-out: LEPTNO % Inhn. Minus Copper Observed
[2] = tested on: Phytophthora infestans; assay type: in vivo, Phytophthora infestans on tomato; settings: applied 24 h before inoculation, assessed 7 days after inoculation
[3] = tested on: Phytophthora capsici; assay: In vitro fungitoxicity of hydrazones with and without copper towards Phytophthora capsici (Example 28, Table 3); assay type: cell-based; settings: 48 h; for % Inhn Plus copper Observed: copper-plus AS medium (CuCl2, 50 μM); for inhibition of growth at 0.05 µg/mL / inhibition of growth at 0.039 µg/mL: Phytophthora capsici, copper-minus AS medium, read-out: % Inhn Minus copper Observed
[4] = tested on: Phytophthora infestans; assay type: in vivo, Phytophthora infestans on tomato (Outdoor Girl); settings: no hydrazone
[5] = tested on: Ustilago maydis; assay: In vitro fungitoxicity of hydrazones with and without copper towards Ustilago maydis (Example 29, Table 4); assay type: cell-based; settings: 1 μg/mL, 48 h; for % Inhn. Plus copper Observed: copper-plus medium (CuCl2, 10 μM); for inhibition of growth at 1 µg/mL: Mycosarcoma maydis, copper-minus medium, read-out: % Inhn. Minus copper Observed
[6] = tested on: Septoria tritici isolate USA-184; assay: In vitro fungitoxicity of hydrazones with and without copper towards Septoria tritici (Example 30, Table 5); assay type: cell-based; settings: Zymoseptoria tritici, 0.05 μg/mL
[7] = compound 0.05 μg/mL, copper-plus medium (CuCl2.2H2O)
[8] = hydrazone 50 ppm + 50 μM CuCl2.2H2O, tomato
[9] = Colby formula, CuCl2, read-out: % Inhibition Plus copper Predicted
[10] = copper-minus medium, 90 h, read-out: % Inhibition Minus copper Observed
[11] = copper-plus medium CuCl2, 90 h, read-out: % Inhibition Plus copper Observed

Row | Compound | inhibition of growth at 0.05 µg/mL ([1]; compound 0.05 μg/mL) [%] | LEPTNO % Inhn. Plus Copper Observed [1, 7] [%] | TLB % Control [2, 8] [%] | % Inhn Plus copper Observed ([3]; 0.050 μg/mL) [%] | inhibition of growth at 0.05 µg/mL ([3]; 0.050 μg/mL) [%] | melting point [°C] | also measured
1 | O=C(N/N=C/c1ccccc1O)c1cc(Cl)ccc1Br [Example 218] | 0 | 92.5 | 70.9 | 93.3 | 10.7 | 222 to 225 | 
2 | O=C(N/N=C/c1cc(Br)cc(Br)c1O)c1cc(I)ccc1Br [Example 223] | 26.9 | 97.2 | 54.0 | 51.3 | 2.5 | 215 to 216 | 
3 | O.O.O.O.O.O=S(=O)([O-])[O-].[Cu+2] [CuSO4, CuSO4.5H2O, reference compound] |  |  |  |  |  |  | % Control of Tomato Late Blight ([4]; CuSO4 10 μM alone): 1.7%; % Control of Tomato Late Blight ([4]; CuSO4 50 μM alone): 4.8%; % Control of Tomato Late Blight ([4]; CuSO4 200 μM alone): 49.7%; % Control of Tomato Late Blight ([4]; CuSO4 400 μM alone): 76.0%; % Control of Tomato Late Blight ([4]; CuSO4 800 μM alone): 82.9%
4 | O=C(N/N=C/c1cc(Cl)cc(Cl)c1O)c1cc(I)ccc1Cl [Example 225] | 0 | 96.6 | 78.2 | 82.8 | 11.4 | 198 to 201 | 
5 | Cc1ccc(C(=O)N/N=C/c2cc(Br)cc(Br)c2O)c(Br)c1 [Example 229] | 6 | 98.0 | 70.9 | 89.1 | 1.6 | 258 to 261 | 
6 | O=C(N/N=C/c1c(O)cccc1Cl)c1ccc([N+](=O)[O-])cc1 [Example 405] |  |  |  | 85.9 | 0.6 | > 300 | inhibition of growth at 0.05 µg/mL ([1]; test compound Concn. 0.05 μg/mL): 2.8%; LEPTNO % Inhn. Plus Copper Observed ([1]; copper-plus medium (CuCl2 10 μM), test compound Concn. 0.05 μg/mL): 96.2%; TLB % Control ([2]; hydrazone 50 ppm with 50 μM CuCl2.2H2O, tomato late blight): 98.0%; % Inhn. Plus copper Observed [5]: 90.0%; inhibition of growth at 1 µg/mL [5]: 9.6%; inhibition at 0.05 µg/mL [6, 9]: 18.8%; inhibition at 0.05 µg/mL [6, 10]: 18.8%; inhibition at 0.05 µg/mL [6, 11]: 89.9%
7 | O=C(N/N=C/c1cc(Cl)cc(Cl)c1O)c1cc(I)ccc1Br [Example 222] | 0 | 94.5 | 67.3 | 76.8 | 11.3 | 201 to 219 | 
8 | O=C(N/N=C/c1cc(Cl)cc(Cl)c1O)c1ccccc1C(F)(F)F [Example 56] | 2.1 | 96.3 | 81.3 |  |  | 106 to 111 | % Inhn Plus copper Observed ([3]; 0.039 μg/mL): 94.1%; inhibition of growth at 0.039 µg/mL ([3]; 0.039 μg/mL): 57.5%
9 | O=C(N/N=C/c1ccccc1O)c1cc(I)ccc1Br [Example 221] | 0 | 92.4 | 66.0 | 92.2 | 12 | 202 to 205 | 
10 | C/C(=N\NC(=O)Cc1ccc(C(F)(F)F)cc1)c1cc(Cl)cc(Cl)c1O [Example 129] | 5.5 | 97.8 | 49.0 |  |  | 207 to 212 | % Inhn Plus copper Observed ([3]; 0.039 μg/mL): 96.3%; inhibition of growth at 0.039 µg/mL ([3]; 0.039 μg/mL): 10.6%
11 | O=C(N/N=C/c1cc(Br)cc(Br)c1O)c1ccccc1 [Example 121] | 0 | 98.3 | 88.1 | 90.4 | 0 |  | % Inhn. Plus copper Observed [5]: 96.9%; inhibition of growth at 1 µg/mL [5]: 0%; inhibition at 0.05 µg/mL [6, 9]: 9.7%; inhibition at 0.05 µg/mL [6, 10]: 9.7%; inhibition at 0.05 µg/mL [6, 11]: 96.5%
12 | O=C(N/N=C/c1ccccc1O)c1cc(I)ccc1Cl [Example 224] | 0 | 91.0 | 67.3 | 93.3 | 6.2 | 222 to 226 | 
